Measured values published in a melting point compilation (Tetko et al.; mined from patent text by program, amines drawn as free bases though some values may be those of a salt).

melting point [°C]	SMILES
184 to 185	C1=Cc2cccnc2N(C2CC2)c2ncccc21
132 to 135	CC(=O)NCc1ccc(C(C)(C)NC(=O)OCc2ccccc2)cc1
191 to 194	CCCS(=O)(=O)NNC(=O)NNS(=O)(=O)CCC
163 to 164	Fc1ccc(NC(=S)NN2CC=CCC2)cc1
112	O=C(Oc1ccc2c(c1)CCCC2)Oc1ccc2c(c1)CCCC2
145	O=C(OCCN1CCC(Nc2nc3ccccc3n2Cc2ccc(F)cc2)CC1)N1CCOCC1
178	Cn1c(=O)c2c(nc(Cl)n2Cc2ccccc2I)n(C)c1=O
194 to 195	Nc1cc(NCCC2CCCCC2)nc2c1ncn2C1OC(CO)C(O)C1O (stereo not drawn)
116 to 118	CCCCOc1cc(CCC(=O)O)n(Cc2ccc(C(F)(F)F)cc2)n1
192 to 194	CCCCc1ccc2scc(NC(=O)C(=O)OC)c(=O)c2c1
78 to 80	O[C@H](CCl)COc1ccc(OCc2ccccc2)cc1
183 to 186	O=S(=O)(Cc1nc2ccc(Cl)cc2[nH]1)c1ccccn1
188 to 189	CC(=O)c1cnc(O)c(Cl)c1
105 to 108	C[C@H](C#Cc1cc(Cc2ccc(F)cc2)cs1)N(O)C(N)=O
243 to 245	CC1(C)C(=O)Nc2cc3[nH]c(-c4c[nH]c5ccccc45)nc3cc21
119 to 120	C#CCOc1cc(-n2ncc(=O)n(C)c2=O)c(Cl)cc1Cl
125 to 126	CC(C)(C)NC(=O)OC1OCN(c2cccc(C(F)(F)F)c2)C1=O (stereo not drawn)
190 to 191	CSc1nc(NC2CCCC2)c2ccnc-2[nH]1
218 to 219	C=CCN1C(C)(C)CC(Oc2nc(OC3CC(C)(C)N(CC=C)C(C)(C)C3)nc(OC3CC(C)(C)N(CC=C)C(C)(C)C3)n2)CC1(C)C
105 to 107	CCOc1cc2nc(NC)nc(-c3cccc(-c4cncc(SC)c4)c3)c2cc1OCC
254 to 256	COC(=O)c1ccc2c(=O)n(Cc3ccc(OC)cc3)c(=O)[nH]c2c1
166 to 168	CONC(=O)c1[nH]c(C)c(-c2nc3ccc(Oc4ccccc4)cc3[nH]2)c1C
171 to 173	O=C(NC1CC1c1ccc(-c2ncn(-c3ccc(OC(F)(F)F)cc3)n2)cc1)Oc1ccccc1 (stereo not drawn)
174 to 176	COC(=O)c1ccc(CNC(=O)c2[nH]c(-c3cccs3)cc2-c2ccc(F)cc2)nc1

melting point [°C]	SMILES
225 to 226	O=C(CN1CCN(c2ccccc2)CC1)Nc1ccc2c(c1NC(=O)c1ccccc1)C(=O)c1ccccc1C2=O
259 to 268	C#Cc1ccc2c(c1)C=C(C(=O)O)C(C(F)(F)F)N2 (stereo not drawn)
196 to 197	CCCCOc1c(N(C)C(=O)OC(C)(C)C)n(CC(C)(C)C)c(=O)c2ccc(O)cc12
177 to 178	C[C@H](c1ccccc1)N1C(=O)N(C(=O)OC(C)(C)C)[C@@H]2C(=O)OC[C@@H]21
188 to 189	COC(=O)c1ccc(NN=CC(=O)OCCC#N)cc1S(N)(=O)=O
63 to 64	CCOC(=O)C(C)Oc1ccc(Sc2ccc(C(F)(F)F)cc2[N+](=O)[O-])cc1 (stereo not drawn)
247 to 249	Fc1cc2c(Nc3ccc(F)c(C(F)(F)F)c3)ncnc2cn1
244 to 246	Cc1nc2c(c3c1[nH]c1cc(F)ccc13)C(=O)CC(C)(C)C2
225 to 226	CCCCc1oc2ccccc2c1Cc1cc(Br)c(O[C@H](Cc2ccccc2)C(=O)O)c(Br)c1
130	O=C(NCC1CC1)C(c1ccccc1)c1ccccc1
145	CCCCc1ncc(/C=C(\Cc2cccs2)C(=O)O)n1Cc1cc(Cl)c(C(=O)O)cc1Cl
133 to 134	O=C1OC(CI)CN1c1cc(F)c(-c2cccnc2)c(F)c1 (stereo not drawn)
67 to 69	COC(=O)C(Cc1ccccc1)Oc1ccc(-c2ccc(-c3c(Cc4ccccc4)oc4ccccc34)cc2)cc1 (stereo not drawn)
141	CSc1ccc(-c2nn(Cc3ccccc3)c(=O)cc2-c2ccc(F)cc2)cc1
250 to 252	Nc1cccc2c1CN(C1CCC(=O)NC1=O)C2=O (stereo not drawn)
151 to 152	C[C@H](Oc1ccc(-c2csc(S(N)(=O)=O)c2)cc1)[C@H](O)CCc1cccnc1
147 to 148	CC(=O)Oc1cccc(C(=O)O)c1C
94 to 95	CCCCCCOC(=O)CC[C@@H](NC(=O)[C@@H](NC(=O)OC(C)(C)C)C(C)C)C(N)=O
223 to 225	COc1ccc2c(c1)Sc1c(cc(OC)c(OC)c1Br)N2
127 to 128	Cc1ccc2ncc(CSc3ccc([N+](=O)[O-])cc3)n2c1
78	Clc1ccccc1C=C(CBr)c1ccccc1
152	CC(C)(C)OC(=O)NCC(=O)OCCCNc1ccc(O)c2c1C(=O)c1c(O)cccc1C2=O
176 to 179	Cc1nc2cccc(OCC(C)(C)C(=O)NCC(C)C)c2c(N)c1C(=O)O
130	Cn1c(C(F)(F)F)cc(C#N)c1-c1ccc(Cl)cc1

melting point [°C]	SMILES
192 to 193	COc1ccc(C(=O)/C(Cc2cc(OC)c(OC)c(OC)c2)=C(/C(=O)O)c2ccc3c(c2)OCO3)cc1
157 to 158	CSc1nc2ncccc2c2nnc(SCc3ccccc3)n12
> 200	COc1cc(CC(=O)Nc2ccc(I)cc2)ccc1NC(=O)Nc1ccccc1C
156 to 157	Nc1ccc(C(=O)N(CCN2CCC(C(=O)c3ccc(F)cc3)CC2)c2ccccc2)cc1
167 to 172	COc1ccc2cc(-c3ccnc(N(C)C)n3)cc(NC3CCN(c4ncnc5[nH]nc(Br)c45)CC3)c2c1
161 to 163	COc1ccc(N2CCN(c3c(C)c(C)c4c(c3C)CC(C)(C)O4)CC2)cc1F
214 to 218	Cc1nc(-c2ccc(O)cc2)cc(-c2cccc(Br)c2)c1C#N
141 to 143	O=C(O)c1cc2cc(Cl)c(Cl)cc2nc1N[C@@H](Cc1ccccc1)C(=O)O
98	CC(O)c1cc(Cl)ccc1O (stereo not drawn)
79 to 80.5	CCOC(=O)C1(C(=O)Nc2ccc(F)cc2F)CC1
121 to 122	O=C(Nc1ccc(-n2ccnn2)c(F)c1)OCc1ccccc1
140	Cc1cc(Oc2ccc(N)cc2)ccc1-c1ccc(Oc2ccc(N)cc2)cc1C
184 to 185	Cc1nc(-c2ccc(Cl)cc2)n(-c2ccc(S(C)(=O)=O)cc2)n1
218 to 219	CC(C)(C)OC(=O)N[C@H]1C(=O)N[C@H]1CON1C(=O)c2ccccc2C1=O (relative stereo)
79 to 80	c1ccc2c(c1)CCc1ccccc1C21CO1
215 to 225	NC(=O)Cn1cc(C(=O)c2ccn3c2CSC3c2cccnc2)c2ccc(-c3ccc(F)cc3)cc21 (stereo not drawn)
86 to 88	COc1ccccc1OCC1(COc2ccccc2OC)NCCS1
128 to 129	CCCCC(=O)Nc1c(C)c(C)c2c(c1C)C(c1ccc(C(C)C)cc1)CO2 (stereo not drawn)
172 to 173	O=S(=O)(c1ccc(O)cc1)N(CC(F)(F)F)c1ccc(O)cc1
202 to 206	CCOC(=O)c1sc2c(ccc(=O)n2-c2ccccc2)c1Br
139 to 141	Cc1onc(NS(=O)(=O)c2ccccc2)c1Cl
127 to 128	Oc1ccc(-c2nnc(CSCCOc3ccccc3)s2)cc1
145 to 146	CN(C(=O)c1ccc2nonc2c1)[C@H]1CC[C@H](N)CC1
204 to 205	N=C1NN(c2ccccc2)CC1CN1CCOCC1 (stereo not drawn)

melting point [°C]	SMILES
275 to 277	CC(=O)Nc1c(-c2ccccc2)c(=O)[nH]c2cc(Cl)ccc12
188 to 190	CCCn1c(COCC)nc2c(N)nc3ccc(OCCCN4CCCC4=O)cc3c21
176 to 180	O=S1(=O)CS(=O)(=O)OCCO1
84 to 86	COc1ccc(C(C)N(C)CCCCOc2ccc(S(=O)(=O)c3c(C(C)C)cn4ccccc34)cc2)cc1OC (stereo not drawn)
169 to 170	OCc1cc2ccc3c4ccccc4ccc3c2s1
82 to 83	Cc1ccc(S(=O)(=O)OCCC2COc3ccccc3O2)cc1 (stereo not drawn)
82 to 83	COC(=O)Nc1nc2ccccc2n1C(=O)NC1CC(C)(C)CC(C)(N(C)C(=O)n2c(NC(=O)OC)nc3ccccc32)C1 (stereo not drawn)
153 to 155	O=C1OC(c2ccccc2)(c2ccccc2)C2CN(C3CCN(Cc4ccccc4)CC3)CCN12 (stereo not drawn)
246 to 247	Cc1nnc(-c2ccc3occ(-c4ccc(S(=O)(=O)N(C)C)cc4)c3c2)o1
72 to 74	Cc1cc(C)c(C(=O)c2ccccc2)c(OCC2CO2)c1 (stereo not drawn)
159 to 161	CCN(CC)C(=O)c1ccc2ccccc2c1-c1ccc2ccccc2c1
135 to 138	CCc1ncc2n1N=C(c1ccc(N)cc1)c1cc3c(cc1C2)OCO3
182 to 185	COc1cc2c3c(n(C)c(=O)c2cc1OC)-c1cc2c(cc1C3=CCCCCCBr)OCO2
209 to 211	COC(=O)c1ccc(Cn2c(=O)c(C)c3sc(C(=O)NCc4cccc(F)c4)cn3c2=O)cc1
233 to 235	CSc1nc(N)nc(-c2ccccc2)c1-c1ccc(=O)n(C)n1
154 to 155	Cc1cccc(C2=C(c3ccc(S(C)(=O)=O)cc3)OC3(CCCCC3)C2=O)c1
168	Fc1cccc(F)c1-c1nnc(-c2ccccc2Br)nn1
147 to 149	C=CCOC(=O)COc1cccc(NC(=O)NCNC(=O)c2ccccc2C(=O)c2ccccc2)c1
172 to 173	O=C(CCl)Nc1cc(Br)cc([N+](=O)[O-])c1NC(=O)CCl
173 to 175	NC(=O)N1CC(c2ccccc2)C(c2ccc(Cl)cc2)=N1 (stereo not drawn)
191 to 192	O=C(Nc1nnc[nH]1)c1ccc2ccccc2c1
160 to 161	COc1nnc2n1C=Cc1ccccc1C2
170 to 172	CC(C)[C@@H](NS(=O)(=O)c1ccc2ccccc2c1)C(=O)O

SMILES	melting point [°C]
CC(C)SSCC12CCC(O)CC1=CCC1C3CCC(=O)C3(C)CCC12 (stereo not drawn)	168 to 169
Cc1c(S(C)=O)c(C#N)nn1-c1c(Cl)cc(C(F)(F)F)cc1Cl (stereo not drawn)	109 to 115
COc1cc(C)cc(OC)c1C1=NC(NC(=O)C(N)Cc2ccccc2)C(=O)N(C)c2ccccc21 (stereo not drawn)	165
